Assay results from patent US8247211B2, “Glycopeptide antibiotics” (American Cyanamid Company, priority 2001, dated 2012).
In brackets after ≈: the same amount, converted by molar mass.

Columns and labels:
Assay in all cases: In vitro antibacterial evaluation: minimum inhibitory concentration (MIC), broth dilution method
Format in all cases: cell-based
Enterococcus sp. = details: 18 hours at 35° C.
Procedure, shortened: (§1)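 Test strains, among them recent clinical isolates carrying methicillin, penicillin and/or vancomycin resistance, were inoculated at 5×10^5 CFU/mL. A broth dilution series spanning 64-0.06 μg/mL in Muller-Hinton II […] (NCCLS M7-A2) defined the MIC as the lowest growth-inhibiting concentration.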

Staphylococcus sp. = details: for MIC Staphylococcus aureus (ATCC 29213): strain ATCC 29213; for MIC Staphylococcus aureus (GC 1131): strain GC 1131; for MIC Staphylococcus aureus (GC 3051): strain GC 3051; for MIC Staphylococcus aureus (GC 3053): strain GC 3053; for MIC Staphylococcus aureus (GC 4541): strain GC 4541; for MIC Staphylococcus aureus (GC 4542): strain GC 4542; for MIC Staphylococcus aureus-SMITH (GC 4543): strain GC 4543; for MIC Staphylococcus aureus (GC 4544): strain GC 4544; for MIC Staphylococcus aureus (GC 4545): strain GC 4545; for MIC Staphylococcus haemolyticus (GC 4546): strain GC 4546; for MIC Coagulase Negative Staphylococcus (GC 4547): strain GC 4547; for MIC Coagulase Negative Staphylococcus (GC 4548): strain GC 4548; for MIC Coagulase Negative Staphylococcus (GC 4549): strain GC 4549; for MIC Coagulase Negative Staphylococcus (GC 4551): strain GC 4551
Procedure, shortened: as §1

Escherichia coli = details: 18 hours at 35° C.
Procedure, shortened: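 Using Muller-Hinton II […] and an inoculum of 5×10^5 CFU/mL, antibiotic dilutions from 64 down to 0.06 μg/mL were tested following NCCLS M7-A2. The MIC is the lowest concentration inhibiting growth, including in methicillin-, penicillin- or vancomycin-resistant clinical isolates.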

Streptococcus sp. = details: 18 hours at 35° C.
Procedure, shortened: as §1

[1] = Enterococcus faecalis (ATCC 29212)
[2] = Enterococcus faecalis (GC 2242)
[3] = Enterococcus faecalis (GC 2691)
[4] = Enterococcus faecalis (GC 3059)
[5] = Enterococcus faecalis (GC 4552)
[6] = Enterococcus faecalis (GC 4553)
[7] = Enterococcus faecalis (GC 4554)
[8] = Enterococcus faecalis (GC 6189)
[9] = broth dilution, inoculum 5×10^5 CFU/mL
[10] = Streptococcus agalactiae (GC 4564)
[11] = Streptococcus pneumoniae (ATCC 6301)
[12] = Streptococcus pneumoniae (GC 1894)
[13] = Streptococcus pneumoniae (GC 4565)
[14] = Streptococcus pyogenes (GC 4563)

## CC(c1ccccc1)C1NC(=O)CNC(=O)C(CO)NC(=O)C(C(O)C2CNC(=N)N2C2OC(CO)C(O)C(O)C2O)NC(=O)C(C(O)C2CNC(=N)N2)NC(=O)C(Cc2ccc(OC3OC(CO)C(OC4OC5COC6(CCCCC6(C)C)OC5C(O)C4O)C(O)C3O)cc2)NC1=O (stereo not drawn) [Example 205, Cyclo[glycyl-β-methylphenylalanyl-O-[4-O-[4,6-O-(2,2-dimethylcyclohexylidene)hexopyranosyl]hexopyranosyl]tyrosyl-3-(2-iminoimidazolidin-4-yl)seryl-3-(3-hexopyranosyl-2-iminoimidazolidin-4-yl)serylseryl]]
Enterococcus sp.; Enterococcus avium (GC 4558)
  MIC Enterococcus avium (GC 4558): 4 µg/mL (≈ 2.85 µM)
Enterococcus sp.; [1]
  MIC Enterococcus faecalis (ATCC 29212): 2 µg/mL (≈ 1.43 µM)
Enterococcus sp.; [2]
  MIC Enterococcus faecalis (GC 2242): 4 µg/mL (≈ 2.85 µM)
Enterococcus sp.; [3]
  MIC Enterococcus faecalis (GC 2691): 4 µg/mL (≈ 2.85 µM)
Enterococcus sp.; [4]
  MIC Enterococcus faecalis (GC 3059): 2 µg/mL (≈ 1.43 µM)
Enterococcus sp.; [5]
  MIC Enterococcus faecalis (GC 4552): 4 µg/mL (≈ 2.85 µM)
Enterococcus sp.; [6]
  MIC Enterococcus faecalis (GC 4553): 2 µg/mL (≈ 1.43 µM)
Enterococcus sp.; [7]
  MIC Enterococcus faecalis (GC 4554): 4 µg/mL (≈ 2.85 µM)
Enterococcus sp.; [8]
  MIC Enterococcus faecalis (GC 6189): 2 µg/mL (≈ 1.43 µM)
Enterococcus sp.; Enterococcus faecium (GC 2243)
  MIC Enterococcus faecium (GC 2243): 2 µg/mL (≈ 1.43 µM)
Enterococcus sp.; Enterococcus faecium (GC 4556)
  MIC Enterococcus faecium (GC 4556): 2 µg/mL (≈ 1.43 µM)
Enterococcus sp.; Enterococcus faecium (GC 4557)
  MIC Enterococcus faecium (GC 4557): 4 µg/mL (≈ 2.85 µM)
Enterococcus sp.; [9]
  MIC Enterococcus avium (GC 4558): 4 µg/mL (≈ 2.85 µM)
  MIC Enterococcus faecalis (ATCC 29212): 2 µg/mL (≈ 1.43 µM)
  MIC Enterococcus faecalis (GC 2242): 4 µg/mL (≈ 2.85 µM)
  MIC Enterococcus faecalis (GC 2691): 4 µg/mL (≈ 2.85 µM)
  MIC Enterococcus faecalis (GC 3059): 2 µg/mL (≈ 1.43 µM)
  MIC Enterococcus faecalis (GC 4552): 4 µg/mL (≈ 2.85 µM)
  MIC Enterococcus faecalis (GC 4553): 2 µg/mL (≈ 1.43 µM)
  MIC Enterococcus faecalis (GC 4554): 4 µg/mL (≈ 2.85 µM)
  MIC Enterococcus faecalis (GC 6189): 2 µg/mL (≈ 1.43 µM)
  MIC Enterococcus faecium (GC 2243): 2 µg/mL (≈ 1.43 µM)
  MIC Enterococcus faecium (GC 4556): 2 µg/mL (≈ 1.43 µM)
  MIC Enterococcus faecium (GC 4557): 4 µg/mL (≈ 2.85 µM)
Staphylococcus sp.
  MIC Staphylococcus aureus (ATCC 29213): 2 µg/mL (≈ 1.43 µM)
  MIC Staphylococcus aureus (GC 1131): 2 µg/mL (≈ 1.43 µM)
  MIC Staphylococcus aureus (GC 3051): 2 µg/mL (≈ 1.43 µM)
  MIC Staphylococcus aureus (GC 3053): 2 µg/mL (≈ 1.43 µM)
  MIC Staphylococcus aureus (GC 4541): 2 µg/mL (≈ 1.43 µM)
  MIC Staphylococcus aureus (GC 4542): 2 µg/mL (≈ 1.43 µM)
  MIC Staphylococcus aureus-SMITH (GC 4543): 2 µg/mL (≈ 1.43 µM)
  MIC Staphylococcus aureus (GC 4544): 2 µg/mL (≈ 1.43 µM)
  MIC Staphylococcus aureus (GC 4545): 2 µg/mL (≈ 1.43 µM)
  MIC Staphylococcus haemolyticus (GC 4546): 2 µg/mL (≈ 1.43 µM)
  MIC Coagulase Negative Staphylococcus (GC 4547): 2 µg/mL (≈ 1.43 µM)
  MIC Coagulase Negative Staphylococcus (GC 4548): 1 µg/mL (≈ 0.713 µM)
  MIC Coagulase Negative Staphylococcus (GC 4549): 1 µg/mL (≈ 0.713 µM)
  MIC Coagulase Negative Staphylococcus (GC 4551): 2 µg/mL (≈ 1.43 µM)
Escherichia coli
  MIC Escherichia coli (ATCC 25922): 64 µg/mL (≈ 45.6 µM)
  MIC Escherichia coli (GC 4560): 1 µg/mL (≈ 0.713 µM)
Streptococcus sp.; [10]
  MIC Streptococcus agalactiae (GC 4564): <0.12 µg/mL
Streptococcus sp.; [11]
  MIC Streptococcus pneumoniae (ATCC 6301): <0.12 µg/mL
Streptococcus sp.; [12]
  MIC Streptococcus pneumoniae (GC 1894): <0.12 µg/mL
Streptococcus sp.; [13]
  MIC Streptococcus pneumoniae (GC 4565): <0.12 µg/mL
Streptococcus sp.; [14]
  MIC Streptococcus pyogenes (GC 4563): <0.12 µg/mL
Streptococcus sp.; [9]
  MIC Streptococcus agalactiae (GC 4564): <0.12 µg/mL
  MIC Streptococcus pneumoniae (ATCC 6301): <0.12 µg/mL
  MIC Streptococcus pneumoniae (GC 1894): <0.12 µg/mL
  MIC Streptococcus pneumoniae (GC 4565): <0.12 µg/mL
  MIC Streptococcus pyogenes (GC 4563): <0.12 µg/mL

## CC(c1ccccc1)C1NC(=O)CNC(=O)C(CO)NC(=O)C(C(O)C2CNC(=N)N2C2OC(CO)C(O)C(O)C2O)NC(=O)C(C(O)C2CNC(=N)N2)NC(=O)C(Cc2ccc(OC3OC(CO)C(OC4OC5COC6(OC5C(O)C4O)C(C)CCCC6C)C(O)C3O)cc2)NC1=O (stereo not drawn) [Example 206, Cyclo[glycyl-β-methylphenylalanyl-O-[4-O-[4,6-O-(2,6-dimethylcyclohexylidene)hexopyranosyl]hexopyranosyl]tyrosyl-3-(2-iminoimidazolidin-4-yl)seryl-3-(3-hexopyranosyl-2-iminoimidazolidin-4-yl)serylseryl]]
Enterococcus sp.; Enterococcus avium (GC 4558)
  MIC Enterococcus avium (GC 4558): 2 µg/mL (≈ 1.43 µM)
Enterococcus sp.; [1]
  MIC Enterococcus faecalis (ATCC 29212): 1 µg/mL (≈ 0.713 µM)
Enterococcus sp.; [2]
  MIC Enterococcus faecalis (GC 2242): 2 µg/mL (≈ 1.43 µM)
Enterococcus sp.; [3]
  MIC Enterococcus faecalis (GC 2691): 2 µg/mL (≈ 1.43 µM)
Enterococcus sp.; [4]
  MIC Enterococcus faecalis (GC 3059): 1 µg/mL (≈ 0.713 µM)
Enterococcus sp.; [5]
  MIC Enterococcus faecalis (GC 4552): 2 µg/mL (≈ 1.43 µM)
Enterococcus sp.; [6]
  MIC Enterococcus faecalis (GC 4553): 2 µg/mL (≈ 1.43 µM)
Enterococcus sp.; [7]
  MIC Enterococcus faecalis (GC 4554): 2 µg/mL (≈ 1.43 µM)
Enterococcus sp.; [8]
  MIC Enterococcus faecalis (GC 6189): 1 µg/mL (≈ 0.713 µM)
Enterococcus sp.; Enterococcus faecium (GC 2243)
  MIC Enterococcus faecium (GC 2243): 2 µg/mL (≈ 1.43 µM)
Enterococcus sp.; Enterococcus faecium (GC 4556)
  MIC Enterococcus faecium (GC 4556): 1 µg/mL (≈ 0.713 µM)
Enterococcus sp.; Enterococcus faecium (GC 4557)
  MIC Enterococcus faecium (GC 4557): 2 µg/mL (≈ 1.43 µM)
Enterococcus sp.; [9]
  MIC Enterococcus avium (GC 4558): 2 µg/mL (≈ 1.43 µM)
  MIC Enterococcus faecalis (ATCC 29212): 1 µg/mL (≈ 0.713 µM)
  MIC Enterococcus faecalis (GC 2242): 2 µg/mL (≈ 1.43 µM)
  MIC Enterococcus faecalis (GC 2691): 2 µg/mL (≈ 1.43 µM)
  MIC Enterococcus faecalis (GC 3059): 1 µg/mL (≈ 0.713 µM)
  MIC Enterococcus faecalis (GC 4552): 2 µg/mL (≈ 1.43 µM)
  MIC Enterococcus faecalis (GC 4553): 2 µg/mL (≈ 1.43 µM)
  MIC Enterococcus faecalis (GC 4554): 2 µg/mL (≈ 1.43 µM)
  MIC Enterococcus faecalis (GC 6189): 1 µg/mL (≈ 0.713 µM)
  MIC Enterococcus faecium (GC 2243): 2 µg/mL (≈ 1.43 µM)
  MIC Enterococcus faecium (GC 4556): 1 µg/mL (≈ 0.713 µM)
  MIC Enterococcus faecium (GC 4557): 2 µg/mL (≈ 1.43 µM)
Staphylococcus sp.
  MIC Staphylococcus aureus (ATCC 29213): 1 µg/mL (≈ 0.713 µM)
  MIC Staphylococcus aureus (GC 1131): 1 µg/mL (≈ 0.713 µM)
  MIC Staphylococcus aureus (GC 3051): 1 µg/mL (≈ 0.713 µM)
  MIC Staphylococcus aureus (GC 3053): 1 µg/mL (≈ 0.713 µM)
  MIC Staphylococcus aureus (GC 4541): 1 µg/mL (≈ 0.713 µM)
  MIC Staphylococcus aureus (GC 4542): 1 µg/mL (≈ 0.713 µM)
  MIC Staphylococcus aureus-SMITH (GC 4543): 1 µg/mL (≈ 0.713 µM)
  MIC Staphylococcus aureus (GC 4544): 1 µg/mL (≈ 0.713 µM)
  MIC Staphylococcus aureus (GC 4545): 1 µg/mL (≈ 0.713 µM)
  MIC Staphylococcus haemolyticus (GC 4546): 0.5 µg/mL (≈ 0.356 µM)
  MIC Coagulase Negative Staphylococcus (GC 4547): 1 µg/mL (≈ 0.713 µM)
  MIC Coagulase Negative Staphylococcus (GC 4548): 0.5 µg/mL (≈ 0.356 µM)
  MIC Coagulase Negative Staphylococcus (GC 4549): 0.5 µg/mL (≈ 0.356 µM)
  MIC Coagulase Negative Staphylococcus (GC 4551): 1 µg/mL (≈ 0.713 µM)
Escherichia coli
  MIC Escherichia coli (ATCC 25922): 32 µg/mL (≈ 22.8 µM)
  MIC Escherichia coli (GC 4560): 1 µg/mL (≈ 0.713 µM)
Escherichia coli; Escherichia coli (GC 4559)
  MIC Escherichia coli (GC 4559): 32 µg/mL (≈ 22.8 µM)
Streptococcus sp.; [10]
  MIC Streptococcus agalactiae (GC 4564): 0.25 µg/mL (≈ 0.178 µM)
Streptococcus sp.; [11]
  MIC Streptococcus pneumoniae (ATCC 6301): <0.12 µg/mL
Streptococcus sp.; [12]
  MIC Streptococcus pneumoniae (GC 1894): <0.12 µg/mL
Streptococcus sp.; [13]
  MIC Streptococcus pneumoniae (GC 4565): <0.12 µg/mL
Streptococcus sp.; [14]
  MIC Streptococcus pyogenes (GC 4563): 1 µg/mL (≈ 0.713 µM)
Streptococcus sp.; [9]
  MIC Streptococcus agalactiae (GC 4564): 0.25 µg/mL (≈ 0.178 µM)
  MIC Streptococcus pneumoniae (ATCC 6301): <0.12 µg/mL
  MIC Streptococcus pneumoniae (GC 1894): <0.12 µg/mL
  MIC Streptococcus pneumoniae (GC 4565): <0.12 µg/mL
  MIC Streptococcus pyogenes (GC 4563): 1 µg/mL (≈ 0.713 µM)
